Reference: patent publication US20140072613A1, “Compositions and Methods for Treating Cutaneous Scarring” (priority 2012, published 2014)
Where no end group is shown, it is not given here.

Assays:
266 human kinases [1] = assay: biochemical; format: biochemical; conditions: at 100 μM
From the text: (§1) Specifically, in these assays, a positively charged substrate is phosphorylated with a radiolabeled phosphate group from an ATP if the kinase is not inhibited by an inhibitor peptide. The positively charged substrate then is attracted to a negatively charged filter membrane, quantified with a scintillation counter, and compared to a 100% activity control.

CaMK1δ (h) = CaMK1δ (h) (Homo sapiens, UniProt Q8IU85); assay: biochemical
From the text: as §1

CaMKI (h) = CaMKI (h) (Homo sapiens, UniProt Q14012); assay: biochemical
Chain of CaMKI (h) (Q14012 whole entry): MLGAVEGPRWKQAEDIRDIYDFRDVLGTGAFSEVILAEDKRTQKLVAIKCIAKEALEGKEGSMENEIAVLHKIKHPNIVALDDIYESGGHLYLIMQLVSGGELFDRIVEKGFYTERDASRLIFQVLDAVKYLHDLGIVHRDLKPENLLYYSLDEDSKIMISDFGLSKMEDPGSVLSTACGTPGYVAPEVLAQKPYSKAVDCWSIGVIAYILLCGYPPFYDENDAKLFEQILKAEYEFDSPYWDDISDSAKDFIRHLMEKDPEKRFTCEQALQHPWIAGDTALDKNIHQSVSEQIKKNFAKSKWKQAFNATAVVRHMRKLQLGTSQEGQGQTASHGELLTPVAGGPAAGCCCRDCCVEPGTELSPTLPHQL
From the text: as §1

EphA2 (h) = EphA2 (h) (Homo sapiens, UniProt P29317); assay: biochemical
From the text: as §1

FGFR2 (h) = FGFR2 (h) (Homo sapiens, UniProt P21802); assay: biochemical
From the text: as §1

Fes(h) = Fes(h) (Homo sapiens, UniProt P07332); assay: biochemical
Chain of Fes(h) (P07332 whole entry): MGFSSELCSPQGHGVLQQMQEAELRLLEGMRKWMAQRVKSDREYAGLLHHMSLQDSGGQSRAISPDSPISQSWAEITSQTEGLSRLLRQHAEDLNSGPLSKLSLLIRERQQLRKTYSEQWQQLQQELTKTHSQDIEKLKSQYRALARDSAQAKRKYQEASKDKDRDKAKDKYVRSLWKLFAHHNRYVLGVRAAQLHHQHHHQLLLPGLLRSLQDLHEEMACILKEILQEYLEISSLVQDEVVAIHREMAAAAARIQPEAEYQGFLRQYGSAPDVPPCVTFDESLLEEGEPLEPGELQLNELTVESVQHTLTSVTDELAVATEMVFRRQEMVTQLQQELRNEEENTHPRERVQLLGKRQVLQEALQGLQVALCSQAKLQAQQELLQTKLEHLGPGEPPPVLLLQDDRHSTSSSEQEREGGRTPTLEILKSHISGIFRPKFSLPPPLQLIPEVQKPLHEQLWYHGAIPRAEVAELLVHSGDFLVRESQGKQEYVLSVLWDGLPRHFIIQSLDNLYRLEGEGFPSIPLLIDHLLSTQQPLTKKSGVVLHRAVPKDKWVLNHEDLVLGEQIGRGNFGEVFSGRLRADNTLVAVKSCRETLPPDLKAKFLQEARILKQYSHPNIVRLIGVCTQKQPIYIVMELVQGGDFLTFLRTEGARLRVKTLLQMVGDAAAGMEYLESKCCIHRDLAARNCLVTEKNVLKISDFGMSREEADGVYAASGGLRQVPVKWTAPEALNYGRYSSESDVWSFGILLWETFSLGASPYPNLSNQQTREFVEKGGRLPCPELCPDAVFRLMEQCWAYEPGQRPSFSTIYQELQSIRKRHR
From the text: as §1

Fgr (h) = Fgr (h) (Homo sapiens, UniProt P09769); assay: biochemical
From the text: as §1

MSK1 (h) = MSK1 (h) (Homo sapiens, UniProt O75582); assay: biochemical
From the text: as §1

Pim-1 (h) = Pim-1 (h) (Homo sapiens, UniProt P11309); assay: biochemical
From the text: as §1

Yes (h) = Yes (h) (Homo sapiens, UniProt P07947); assay: biochemical
From the text: as §1

MAPKAP-K2 (h) = MAPKAP-K2 (h) (Homo sapiens, UniProt P49137); assay: Millipore radiometric kinase assay (IC50 Profiler Express / kinase profiling); format: biochemical
Chain of MAPKAP-K2 (h) (P49137 whole entry): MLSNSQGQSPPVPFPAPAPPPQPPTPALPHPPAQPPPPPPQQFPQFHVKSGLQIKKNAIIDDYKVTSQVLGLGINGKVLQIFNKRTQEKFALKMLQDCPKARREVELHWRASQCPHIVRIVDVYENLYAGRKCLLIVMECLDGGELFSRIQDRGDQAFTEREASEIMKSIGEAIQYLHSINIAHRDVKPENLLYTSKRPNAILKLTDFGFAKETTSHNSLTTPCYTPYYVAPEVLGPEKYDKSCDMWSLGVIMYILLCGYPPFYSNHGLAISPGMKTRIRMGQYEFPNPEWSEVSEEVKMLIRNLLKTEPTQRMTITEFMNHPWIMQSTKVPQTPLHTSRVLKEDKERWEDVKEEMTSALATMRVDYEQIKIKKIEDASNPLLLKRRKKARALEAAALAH
From the text: as §1

MAPKAP-K3 (h) = MAPKAP-K3 (h) (Homo sapiens, UniProt Q16644); assay: as above; format: biochemical
Chain of MAPKAP-K3 (h) (Q16644 whole entry): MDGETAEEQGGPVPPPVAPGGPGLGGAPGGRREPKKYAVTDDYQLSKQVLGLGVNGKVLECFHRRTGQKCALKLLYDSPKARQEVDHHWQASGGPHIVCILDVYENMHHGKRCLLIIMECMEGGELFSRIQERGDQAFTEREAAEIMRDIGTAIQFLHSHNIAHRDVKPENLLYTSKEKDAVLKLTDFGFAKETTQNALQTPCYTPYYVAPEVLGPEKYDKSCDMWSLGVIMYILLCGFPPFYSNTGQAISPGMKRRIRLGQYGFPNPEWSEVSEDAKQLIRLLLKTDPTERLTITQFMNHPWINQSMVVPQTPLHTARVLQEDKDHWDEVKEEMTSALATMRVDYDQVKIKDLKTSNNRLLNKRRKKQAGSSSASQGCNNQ
From the text: as §1

TrkB (h) = TrkB (h) (Homo sapiens, UniProt Q16620); assay: as above; format: biochemical
Chain of TrkB (h) (Q16620 32-822): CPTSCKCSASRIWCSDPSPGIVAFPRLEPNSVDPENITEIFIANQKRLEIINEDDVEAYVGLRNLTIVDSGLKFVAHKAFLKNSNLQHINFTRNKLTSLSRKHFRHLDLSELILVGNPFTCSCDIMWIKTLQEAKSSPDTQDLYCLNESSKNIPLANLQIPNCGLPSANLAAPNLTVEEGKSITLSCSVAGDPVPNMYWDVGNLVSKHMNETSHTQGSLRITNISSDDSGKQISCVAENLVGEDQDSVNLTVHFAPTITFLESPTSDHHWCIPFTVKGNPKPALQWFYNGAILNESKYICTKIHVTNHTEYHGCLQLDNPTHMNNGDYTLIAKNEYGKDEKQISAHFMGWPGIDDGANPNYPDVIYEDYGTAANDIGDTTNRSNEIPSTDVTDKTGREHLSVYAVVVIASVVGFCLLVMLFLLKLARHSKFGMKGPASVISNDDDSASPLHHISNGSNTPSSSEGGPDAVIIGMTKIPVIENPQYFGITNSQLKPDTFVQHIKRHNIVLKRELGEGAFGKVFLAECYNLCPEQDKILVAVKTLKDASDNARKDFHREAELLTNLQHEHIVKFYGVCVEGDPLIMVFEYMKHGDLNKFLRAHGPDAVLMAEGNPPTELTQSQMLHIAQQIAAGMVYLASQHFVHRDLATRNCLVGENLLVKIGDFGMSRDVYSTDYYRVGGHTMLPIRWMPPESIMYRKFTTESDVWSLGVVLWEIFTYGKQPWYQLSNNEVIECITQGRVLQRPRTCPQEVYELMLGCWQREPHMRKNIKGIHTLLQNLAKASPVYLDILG
From the text: as §1

DMPK (h) = molecular target: T1, DMPK (h) (Homo sapiens, UniProt Q09013); assay: Millipore radiometric kinase assay (IC50 Profiler Express); format: biochemical
T1 sequence (Q09013 1-629): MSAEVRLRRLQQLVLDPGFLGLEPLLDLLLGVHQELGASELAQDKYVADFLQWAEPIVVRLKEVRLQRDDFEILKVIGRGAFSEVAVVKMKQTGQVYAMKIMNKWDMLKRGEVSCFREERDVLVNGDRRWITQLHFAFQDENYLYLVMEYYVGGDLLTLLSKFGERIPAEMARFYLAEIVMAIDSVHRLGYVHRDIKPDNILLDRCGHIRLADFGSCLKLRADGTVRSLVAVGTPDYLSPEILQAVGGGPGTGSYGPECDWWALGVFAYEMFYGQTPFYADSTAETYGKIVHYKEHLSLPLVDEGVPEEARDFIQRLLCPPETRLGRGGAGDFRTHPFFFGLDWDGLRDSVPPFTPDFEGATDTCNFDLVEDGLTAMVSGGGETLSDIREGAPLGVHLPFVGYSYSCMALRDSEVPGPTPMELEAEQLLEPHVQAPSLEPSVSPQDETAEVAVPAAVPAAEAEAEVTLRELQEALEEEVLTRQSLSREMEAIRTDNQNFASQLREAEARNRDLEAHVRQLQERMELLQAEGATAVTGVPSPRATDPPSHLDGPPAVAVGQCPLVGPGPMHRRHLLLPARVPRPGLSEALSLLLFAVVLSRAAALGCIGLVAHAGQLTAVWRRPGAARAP
From the text: as §1

DRAK1 (h) = molecular target: T2, DRAK1 (h) (Homo sapiens, UniProt Q9UEE5); assay: as above; format: biochemical
T2 sequence (Q9UEE5 1-414): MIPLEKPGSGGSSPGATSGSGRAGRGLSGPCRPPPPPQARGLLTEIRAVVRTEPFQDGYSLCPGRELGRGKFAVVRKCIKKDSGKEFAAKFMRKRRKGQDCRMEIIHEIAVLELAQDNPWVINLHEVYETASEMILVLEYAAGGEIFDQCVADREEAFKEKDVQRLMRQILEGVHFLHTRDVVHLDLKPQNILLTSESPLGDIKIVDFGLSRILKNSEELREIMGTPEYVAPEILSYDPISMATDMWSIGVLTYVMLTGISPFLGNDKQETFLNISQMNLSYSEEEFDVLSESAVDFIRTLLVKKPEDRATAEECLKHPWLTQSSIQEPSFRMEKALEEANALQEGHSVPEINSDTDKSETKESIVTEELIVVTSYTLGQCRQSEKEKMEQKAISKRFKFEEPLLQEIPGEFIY
From the text: as §1

EGFR (L861Q) (h) = EGFR (L861Q) (h) (Homo sapiens, UniProt P00533, L861Q); assay: as above; format: biochemical
From the text: as §1

LOK (h) = LOK (h) (Homo sapiens, UniProt O94804); assay: as above; format: biochemical
Chain of LOK (h) (O94804 whole entry): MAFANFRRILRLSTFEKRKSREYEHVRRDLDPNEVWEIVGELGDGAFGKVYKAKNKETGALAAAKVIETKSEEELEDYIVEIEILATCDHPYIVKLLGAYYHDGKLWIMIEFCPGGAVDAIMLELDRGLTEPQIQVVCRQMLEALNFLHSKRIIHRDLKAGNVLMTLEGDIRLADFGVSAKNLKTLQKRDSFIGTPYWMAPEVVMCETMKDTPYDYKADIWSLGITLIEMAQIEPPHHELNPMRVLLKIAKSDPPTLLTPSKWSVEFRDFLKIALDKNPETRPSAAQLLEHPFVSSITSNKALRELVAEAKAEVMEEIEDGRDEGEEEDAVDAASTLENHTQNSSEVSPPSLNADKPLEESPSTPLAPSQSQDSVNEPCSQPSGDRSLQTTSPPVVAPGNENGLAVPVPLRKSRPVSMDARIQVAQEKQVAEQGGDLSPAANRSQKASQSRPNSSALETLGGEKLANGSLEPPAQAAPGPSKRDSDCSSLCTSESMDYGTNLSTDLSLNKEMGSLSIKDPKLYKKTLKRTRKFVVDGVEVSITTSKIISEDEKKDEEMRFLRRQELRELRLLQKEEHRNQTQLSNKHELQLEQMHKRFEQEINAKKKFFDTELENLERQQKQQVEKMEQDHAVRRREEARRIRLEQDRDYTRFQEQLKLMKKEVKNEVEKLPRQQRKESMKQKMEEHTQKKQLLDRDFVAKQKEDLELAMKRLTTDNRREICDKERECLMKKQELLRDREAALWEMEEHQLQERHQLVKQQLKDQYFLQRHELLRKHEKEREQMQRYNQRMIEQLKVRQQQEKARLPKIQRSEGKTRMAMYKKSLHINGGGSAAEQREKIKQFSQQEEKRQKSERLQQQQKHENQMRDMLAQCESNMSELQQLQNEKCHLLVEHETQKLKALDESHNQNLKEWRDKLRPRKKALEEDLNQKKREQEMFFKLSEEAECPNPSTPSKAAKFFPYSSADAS
From the text: as §1

266 human kinases [2] = molecular target: 266 human kinases (Homo sapiens, UniProt Q9H1R3); assay: biochemical; format: biochemical; conditions: MLCK(h); 100 μM
From the text: as §1

Melanocortin 4 = molecular target: T3, Melanocortin 4 (Homo sapiens, UniProt P32245); assay: Cerep binding assay (radiolabelled ligand competition)
T3 construct: Cerep
T3 sequence (P32245 whole entry): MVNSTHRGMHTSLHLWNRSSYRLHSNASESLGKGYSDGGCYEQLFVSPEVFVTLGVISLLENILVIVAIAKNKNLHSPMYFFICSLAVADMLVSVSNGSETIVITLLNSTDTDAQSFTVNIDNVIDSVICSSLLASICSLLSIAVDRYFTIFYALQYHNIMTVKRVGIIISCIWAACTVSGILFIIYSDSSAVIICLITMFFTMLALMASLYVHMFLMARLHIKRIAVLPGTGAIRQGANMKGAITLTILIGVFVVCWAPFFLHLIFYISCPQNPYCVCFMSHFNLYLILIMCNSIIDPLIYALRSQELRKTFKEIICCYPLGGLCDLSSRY
Method: (§2) Each binding assay was performed in 6-control wells with or without vehicle plus an 8-point dose-response of the relevant reference compound.

Neurokinin 2 = molecular target: T4, Neurokinin 2 (Homo sapiens, UniProt P21452); assay: as above
T4 construct: Cerep
T4 sequence (P21452 whole entry): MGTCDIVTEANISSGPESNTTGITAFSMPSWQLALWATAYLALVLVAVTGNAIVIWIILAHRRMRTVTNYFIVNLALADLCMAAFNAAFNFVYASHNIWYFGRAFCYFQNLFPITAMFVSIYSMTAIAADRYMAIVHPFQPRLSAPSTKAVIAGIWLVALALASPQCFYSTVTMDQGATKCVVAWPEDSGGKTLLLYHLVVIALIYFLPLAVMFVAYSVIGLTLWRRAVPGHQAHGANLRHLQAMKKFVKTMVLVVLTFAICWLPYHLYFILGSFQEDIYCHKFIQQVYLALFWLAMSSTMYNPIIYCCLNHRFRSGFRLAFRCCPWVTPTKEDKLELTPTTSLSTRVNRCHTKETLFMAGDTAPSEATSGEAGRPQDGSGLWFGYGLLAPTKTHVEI
Method: as §2

Serotonin 2A = molecular target: T5, Serotonin 2A (Homo sapiens, UniProt P28223); assay: as above
T5 construct: Cerep
T5 sequence (P28223 whole entry): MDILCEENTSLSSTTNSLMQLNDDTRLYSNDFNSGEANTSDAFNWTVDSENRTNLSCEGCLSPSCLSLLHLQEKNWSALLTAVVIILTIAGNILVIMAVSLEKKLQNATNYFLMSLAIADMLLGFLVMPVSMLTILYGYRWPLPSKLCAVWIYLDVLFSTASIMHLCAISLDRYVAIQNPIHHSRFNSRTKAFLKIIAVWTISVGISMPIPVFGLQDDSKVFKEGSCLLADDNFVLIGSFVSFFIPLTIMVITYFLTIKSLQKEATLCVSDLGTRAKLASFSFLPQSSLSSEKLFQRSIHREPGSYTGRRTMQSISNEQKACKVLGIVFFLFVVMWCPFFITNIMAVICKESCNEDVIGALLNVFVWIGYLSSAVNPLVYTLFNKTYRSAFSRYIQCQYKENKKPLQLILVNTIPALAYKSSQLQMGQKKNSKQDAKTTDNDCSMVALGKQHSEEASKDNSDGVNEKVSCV
Method: as §2

[3] = test system: hypertrophic scarring induced by mechanical loading; assay: Mouse model of hypertrophic scarring induced by mechanical loading: scar area, gross and histological; format: in vivo; conditions: 50 μg/kg intraperitoneal daily day 0 through day 14
Method: Dorsal skins were distracted laterally along both sides of the wound edge by a distraction rate of 1 mm/day from day 4 to day 7, and then 2 mm/day from day 8 to day 14. […] At day 14, skin wounds were photographed digitally, and scar areas were measured by Image J software. Tissue was harvested for RNA extraction, Florescence-Activated Cell Sorting (FACS) analysis, and histological examination.
Digital photographs were taken on the day of surgery and every two days thereafter. Gross scar appearance was assessed by tracing the wound margin and calculating the hypertrophic scar area.
Scar samples from each mouse were fixed in 10% formalin and embedded in paraffin. Sections were made and stained with hematoxylin and eosin (H&E) to assess scar tissue deposition. […] Scar areas were outlined, and areas were measured by using Image J software. Scale bar=100 μm.

[4] = test system: Ca^2+/calmodulin-dependent protein kinase II (CaMKII); conditions: cited from earlier work
PKA = conditions: AIP 1 μM; cited from earlier work
PKC = conditions: AIP 1 μM; cited from earlier work
CaMKIV = CaMKIV (Homo sapiens, UniProt Q16566); conditions: AIP 1 μM; cited from earlier work
[5] = read-out: % Activity of off-target receptor

KAFAKLAARLYRKALARQLGVAA [MMI-0400]
off-target kinase inhibition (266 human kinases [1]): very limited off-target kinase inhibition

YARAAARQARAKALARQLGVAA [MMI-0100]
IC50 (CaMK1δ (h)): 45.8 µM
IC50 (CaMKI (h)): 11.7 µM
inhibition at 100 µM (CaMKI (h); read-out: inhibition of kinase activity of CaMKI): > 65%
IC50 (EphA2 (h)): 181 µM
IC50 (FGFR2 (h)): 172 µM
IC50 (Fes(h)): 174 µM
IC50 (Fgr (h)): 141 µM
IC50 (MSK1 (h)): 102 µM
IC50 (Pim-1 (h)): 71.7 µM
IC50 (Yes (h)): 114 µM
IC50 (MAPKAP-K2 (h)): 12.1 µM
inhibition at 100 µM (MAPKAP-K2 (h); at 100 μM, in vitro, read-out: inhibition of kinase activity of MK2): > 65%
IC50 (MAPKAP-K3 (h)): 15.8 µM
inhibition at 100 µM (MAPKAP-K3 (h); at 100 μM, in vitro, read-out: inhibition of kinase activity of MK3): > 65%
IC50 (TrkB (h)): 4.6 µM
inhibition at 100 µM (TrkB (h); at 100 μM, in vitro): > 65%
IC50 (DMPK (h)): 34.1 µM
IC50 (DRAK1 (h)): 78.3 µM
IC50 (EGFR (L861Q) (h)): 128 µM
IC50 (LOK (h)): 47.6 µM
activity at 100 µM (266 human kinases [2]): 85%
inhibition of off-target protein (Melanocortin 4; concentration not given): less than 30%
activity at 100 µM (Melanocortin 4; [5]): 81%
inhibition of off-target protein (Neurokinin 2; concentration not given): less than 30%
activity at 100 µM (Neurokinin 2; [5]): 85%
inhibition of off-target protein (Serotonin 2A; concentration not given): less than 30%
activity at 100 µM (Serotonin 2A; [5]): 86%

FAKLAARLYRKALARQLGVAA [MMI-0300]
off-target kinase inhibition (266 human kinases [1]): very limited off-target kinase inhibition
gross scar appearance vs PBS-treated control mouse [3]: less inflammation and less scar formation

autocamtide-2 related inhibitory peptide [AIP]
CaMKII activity ([4]; AIP 1 μM): inhibited completely
IC50 [4]: 0.1 µM
PKA activity (PKA): not affected
PKC activity (PKC): not affected
CaMKIV activity (CaMKIV): not affected
